Assay results taken from patent US20140309171A1, “MARKER FOR BLOOD COAGULATION” (Universite Catholique De Louvain, priority 2011, published 2014).
“Also recorded” adds a separate entry of the source.

Legend:
[1] = test system: Ser79 acetyl-CoA carboxylase (ACC) phosphorylation in human platelets; assay: Western blot of phosphorylated (Ser79) ACC in human platelets; assay type: cell-based; conditions: isolated washed human platelets treated with the agonist
Procedure: (§1) Washed human platelets (used in in vitro studies). Platelets were obtained from adult healthy volunteers in accordance with the Ethics Commission of our institution (Commission d'Ethique Biomédicale Hospitalo-Facultaire, Université catholique de Louvain). Whole blood was collected with butterfly needle 21G into Sodium Citrate 1:10 solution (S-monovette). Platelet-rich plasma (PRP) was obtained by 15 min centrifugation at 330 g. The platelets pellet was then washed in Tyrode modified buffer (135 mM NaCl, 12 mM NaHCO3, 1 mM Sodium Citrate, 2.9 mM KCl, 0.3 mM Na2HPO4, 1 mM MgCl2, 5 mM D-glucose, 10 mM Hepes, 0.35% bovine serum albumin (BSA), pH 7.4 at 37° C.) and resuspended to a density of 2.5 10^5 platelets/μl for the measurement of intracellular Ca^2+ or platelet aggregation. For Western Blot analysis, PRP with eptifibatide 4 μg/ml (Integriline, GlaxoSmithKline) and ectonucleotidase apyrase (grade I) 0.5 U/ml was layered over a density barrier of iodixanol (Optiprep®) that allowed the erythrocytes and leucocytes to pellet during centrifugation at 350 g for 15 min. The platelets, because of their small size, sediment much more slowly. After centrifugation at 800 g for 10 min, the resulting pellet was resuspended to a density of 2·10^5 platelets/μl in Tyrode modified buffer before treatment and lysis of samples.
(§2) Proteins were separated as described (Miranda et al. 2010. J Clin Invest 103(6): 879-887). The membranes were probed with the following antibodies: α1/α2 AMPK (Kinasource), phospho-ACC (S79) (1:1000; Cell Signalling), phospho-MLC (S19) (1:10000; Sigma-Aldrich), phospho-VASP (T278) (1:1000; ECM Bioscience), cofilin (Cell Signalling), phospho-cofilin (Ser 3) (Cell Signalling). Bound antibodies were detected by enhanced chemiluminescence (Thermofisher). For each gel, control of loading was realized by immunoblotting using an anti-β-actin (1:10000; Santa Cruz Biotechnology), anti-gelsolin (Santa Cruz Biotechnology) or anti-GAPDH (1:1000; Cell Signalling) antibody after the membranes were stripped. Band intensities were quantified by scanning and processing image intensities with the program ImageJ (1.33 for Mac OS X). The quantification of immunoblots presented in results was obtained after normalization using the internal loading control.
Platelets were isolated from human blood samples as described in the experimental procedures. The isolated platelets were treated with increasing doses of thrombin (0.01, 0.03, 0.1, 0.3 and 1 U/ml), the thromboxane A2 (TXA2) receptor agonist U46619 (0.1, 0.3, 1, 3 and 10 μM), collagen (0.5, 1, 2.5, 5 and 10 μg/ml) or ADP (2.5, 5, 10, 25 nd 50 μM) for 1 min. Following treatment, the platelets were lysed and subjected to Western blotting for determining phosphorylation of Ser79 of ACC.

blood coagulation [2] = assay: Thrombin time (TT) in cardiac surgery patients; assay type: in vivo, human
Procedure: (§3) A blood sample was drawn during CPB. […] ACT was measured at the bedside of the patients: a sample of blood was drawn, transferred into an appropriate test vial and the clotting time was measured. The second sample was taken 4 h after surgery and the coagulation was assessed in the same time (activated partial thromboplastin time, apTT; thrombin time, TT). Thrombin time (Thromboclotin™, Siemens, Marburg, Germany) and activated partial thromboplastin time (Platelin L; bioMerieux, France) were measured in a tube containing 0.129 M of trisodium citrate and determined using a coagulation device (MDA II coagulation analyzeer; bioMérieux). After surgery, a chest tube was inserted and a closed chest drainage system was attached to promote drainage of air and fluid. Bleeding was evaluated by the amount of blood collected in the chest tube of drainage over a period of 6 h after admission in intensive cares.

[3] = Post-operative bleeding (chest tube drainage) in cardiac surgery patients; assay type: in vivo, human; conditions: patient 6, after restoration of coagulation by protamine administration
Procedure: as §3

blood coagulation [4] = assay: Activated partial thromboplastin time (aPTT) in cardiac surgery patients; assay type: in vivo, human
Procedure: as §3

[5] = test system: cofilin phosphorylation in platelets from WT mice; assay: Western blot of cofilin phosphorylation in murine platelets; assay type: cell-based, mouse; conditions: thrombin 0.05 U/ml
Procedure: (§4) Eight- to 12-week-old mice were bled under sodium pentobarbital anesthesia (25-35 mg·kg^−1) from the retroorbital plexus. Mouse blood was collected in a 1/10 ACD solution (12 mM citric acid, 15 mM sodium citrate, 25 mM glucose) with ectonucleotidase apyrase (grade I) 0.5 U/ml. PRP was obtained by centrifugation at 800 g for 5 s followed by 5 min at 150 g. PRPs from three animals were pooled. Platelets were washed in Tyrode modified buffer and resuspended to a density of 2.5 10^5 platelets/μl for the measurement of platelet aggregation and for Western Blot analysis. At least three independent experiments were performed on PRP from different pools.
as §2, with “For each gel, control of loading was realized by immunoblotting using an anti-β-actin (1:10000; Santa Cruz Biotechnology), anti-gelsolin (Santa Cruz Biotechnology) or anti-GAPDH (1:1000; Cell Signalling) antibody after the membranes were stripped.” left out

[6] = test system: VASP Thr 278 phosphorylation; assay: Western blot of VASP Thr278 phosphorylation in human platelets; assay type: cell-based; conditions: human platelets, 0.1 U/ml thrombin
Procedure: (§5) Washed human platelets (used in in vitro studies). Platelets were obtained from adult healthy volunteers in accordance with the Ethics Commission of our institution (Commission d'Ethique Biomédicale Hospitalo-Facultaire, Université catholique de Louvain). Whole blood was collected with butterfly needle 21G into Sodium Citrate 1:10 solution (S-monovette). Platelet-rich plasma (PRP) was obtained by 15 min centrifugation at 330 g. The platelets pellet was then washed in Tyrode modified buffer (135 mM NaCl, 12 mM NaHCO3, 1 mM Sodium Citrate, 2.9 mM KCl, 0.3 mM Na2HPO4, 1 mM MgCl2, 5 mM D-glucose, 10 mM Hepes, 0.35% bovine serum albumin (BSA), pH 7.4 at 37° C.) and resuspended to a density of 2.5 10^5 platelets/μl for the measurement of intracellular Ca^2+ or platelet aggregation. […]
(§6) Proteins were separated as described (Miranda et al. 2010. J Clin Invest 103(6): 879-887). […] Bound antibodies were detected by enhanced chemiluminescence (Thermofisher). […] Band intensities were quantified by scanning and processing image intensities with the program ImageJ (1.33 for Mac OS X). The quantification of immunoblots presented in results was obtained after normalization using the internal loading control.

washed human platelets = assay: Platelet aggregation, light transmission (Chrono-Log Aggregometer); assay type: cell-based; conditions: 0.025 U/ml thrombin alone
Procedure: as §1
Light transmission during thrombin-induced platelet aggregation in human and murine PRP was recorded with a Chrono-Log Aggregometer at 37° C., under stirring condition (1200 crpm). The platelet suspension was incubated with dimethyl sulfoxide (DMSO, vehicle) or STO-609 (10 μM, Tocris) for 2 min before the addition of the thrombin (+/−0.03 U/ml). CaCl2 2 mM was added prior to the agonists.
To evaluate the potential implication of CaMKKβ in platelet aggregation, washed human platelets were pre-incubated for 2 min with 10 μM STO-609, prior to treatment with thrombin or ADP.

AMPK = AMPK enzyme assay after immunoprecipitation from platelet extracts; assay type: cell-based; conditions: human platelets treated with 0.1 U/ml thrombin
Procedure: AMPK was immunoprecipitated with 10 μg of α1-AMPK or α2-AMPK antibodies (Kinasource) from 50 μg of platelet extracts and assayed in a final volume of 50 μl Hepes 50 mM, pH 7.2, with 0.2 mM SAMS peptide (Substrate for AMP-activated Protein Kinase, Tocris Bioscience), 0.2 mM adenosine 5′-monophosphate (AMP), and 0.1 mM [^32P]MgATP (specific radioactivity: 1000 cpm/pmol; Perkin Elmer) at 30° C. Aliquots (10 μl) were removed and spotted onto Whatman P81 papers for measurement of ^32P incorporation. One unit of protein kinase activity corresponds to the incorporation of 1 nmol of phosphate into the appropriate peptide substrate per min under the assay conditions.
AMPK was immunoprecipitated with anti-α1- and anti-α2-AMPK antibodies prior to AMPK assay. The AMPK catalytic α1-subunit isoform accounted for the total AMPK activity in platelets (FIG. 1B), confirming the immunoblotting results.

[7] = test system: cofilin Ser3 phosphorylation; assay: Western blot of cofilin Ser3 phosphorylation in human platelets; assay type: cell-based; conditions: human platelets, 0.1 U/ml thrombin, maximal at 1 min, persisted for 10 min
Procedure: as §5, §6

[8] = test system: VASP phosphorylation in platelets from WT mice; assay: Western blot of VASP phosphorylation in murine platelets; assay type: cell-based, mouse; conditions: thrombin 0.05 U/ml
Procedure: as §4
as §2, with “For each gel, control of loading was realized by immunoblotting using an anti-β-actin (1:10000; Santa Cruz Biotechnology), anti-gelsolin (Santa Cruz Biotechnology) or anti-GAPDH (1:1000; Cell Signalling) antibody after the membranes were stripped.” left out

[9] = test system: MLC phosphorylation in platelets from WT mice; assay: Western blot of MLC phosphorylation in murine platelets; assay type: cell-based, mouse; conditions: thrombin 0.05 U/ml
Procedure: as §4
as §2, with “For each gel, control of loading was realized by immunoblotting using an anti-β-actin (1:10000; Santa Cruz Biotechnology), anti-gelsolin (Santa Cruz Biotechnology) or anti-GAPDH (1:1000; Cell Signalling) antibody after the membranes were stripped.” left out

[10] = test system: myosin light chain (MLC) Ser 19 phosphorylation; assay: Western blot of MLC Ser19 phosphorylation in human platelets; assay type: cell-based; conditions: human platelets, 0.1 U/ml thrombin, significant after 2 min, persisted till 10 min
Procedure: as §5, §6

blood coagulation [11] = assay: Activated coagulation time (ACT) in cardiac surgery patients; assay type: in vivo, human
Procedure: as §3

[12] = patient 6, after protamine injection
[13] = n = 29 patients, during surgery, after 47086±17766 UI UFH
[14] = patient 1, during surgery, UFH 17000 units
[15] = patient 2, during surgery, UFH 33000 units
[16] = patient 3, during surgery, UFH 25500 units
[17] = patient 4, during surgery, UFH 10000 units
[18] = patient 5, during surgery, UFH 25000 units
[19] = patient 6, during surgery, UFH 41000 units

Nc1ncnc2c1ncn2[C@@H]1O[C@H](COP(=O)(O)OP(=O)(O)O)[C@@H](O)[C@H]1O [ADP, adenosine diphosphate]
Ser79 ACC phosphorylation induced by platelet agonist [1]: not observed; also recorded: not lead to ACC phosphorylation; also recorded: failed to increase

CCCCC[C@H](O)/C=C/[C@@H]1[C@@H](C/C=C\CCCC(=O)O)[C@H]2CO[C@@H]1C2 [U46619]
Ser79 ACC phosphorylation induced by platelet agonist [1]: not observed; also recorded: failed to increase

collagen
Ser79 ACC phosphorylation induced by platelet agonist [1]: not observed; also recorded: failed to increase

protamine
TT (blood coagulation [2]; [12]): 30 s
Bleeding [3]: controlled
aPTT (blood coagulation [4]; [12]): 27 s

thrombin
Ser79 ACC phosphorylation induced by platelet agonist [1]: increased; also recorded: specifically induced
phosphorylation of cofilin induced by agonist [5]: increase
VASP phosphorylation on Thr 278 induced by agonist [6]: significant increased phosphorylation
platelet aggregation, % of aggregation (washed human platelets): 69±3%
AMPK activation (AMPK): led to AMPK activation; also recorded: induces AMPK activation
cofilin phosphorylation in Ser3 induced by agonist [7]: increase
phosphorylation of VASP induced by agonist [8]: increase
phosphorylation of MLC induced by agonist [9]: increase
MLC Ser 19 phosphorylation induced by agonist [10]: increase

unfractionated heparin [UFH]
TT, mean (blood coagulation [2]; [13]): >120 s
TT (blood coagulation [2]; [14]): >120 s
TT (blood coagulation [2]; [15]): >120 s
TT (blood coagulation [2]; [16]): >120 s
TT (blood coagulation [2]; [17]): >120 s
TT (blood coagulation [2]; [18]): >120 s
TT (blood coagulation [2]; [19]): >120 s
TT, mean (blood coagulation [2]; patients 1-6, during surgery, after 25250±11000 UI UFH): >120 s
aPTT (blood coagulation [4]; [14]): >180 s
aPTT (blood coagulation [4]; patient 2, 4 h after surgery, UFH 33000 units): >180 s
aPTT (blood coagulation [4]; [16]): >180 s
aPTT (blood coagulation [4]; [17]): >180 s
aPTT (blood coagulation [4]; [18]): >180 s
aPTT (blood coagulation [4]; [19]): >180 s
ACT, mean (blood coagulation [11]; mean of patients 1-6, during surgery, after 25250±11000 UI UFH): 568 ± 65 s
ACT, mean (blood coagulation [11]; [13]): 594 ± 100 s
ACT (blood coagulation [11]; [14]): 485 s
ACT (blood coagulation [11]; [15]): 523 s
ACT (blood coagulation [11]; [16]): 635 s
ACT (blood coagulation [11]; [17]): 498 s
ACT (blood coagulation [11]; [18]): 698 s
ACT (blood coagulation [11]; [19]): 568 s
